Laboratory results: patent publication US5998390A, “Combination of bisphosphonate and tetracycline” (The Research Foundation of State University of New York, priority 1998, dated 1999)

Assays:
LPS-injected rats [1] = assay: Tooth mobility in LPS-induced periodontitis rat model; format: in vivo; settings: for effect on tooth mobility / effect on pathologic tooth mobility: Examples 1 and 2; for effect on pathologic tooth mobility: 2 mg; for reduction in tooth mobility: Example 3, day 7, vs untreated LPS-injected rats, CMT-8 1 mg/day oral, clodronate 1 mg/week s.c., single agents not statistically significant, combination p<0.05; for tooth mobility relative to the level in saline-injected control rats: Example 3, single agents at sub-optimal dose
Source text: (§1) The activity of combinations of various tetracyclines and bisphosphonates was investigated in vivo. […] This procedure produces marked inflammation in the periodontal tissues and induces elevated levels of tissue-destructive matrix metalloproteinases (MMPs) and serine proteinases such as elastase in the gingiva leading to severe alveolar bone resorption and bone loss around the affected teeth, all within the 7-day experimental protocol. In brief, adult male rats with this experimentally-induced inflammatory disease were either left untreated, or treated with sub-optimal doses of (1) a CMT by itself; (II) a bisphosphonate by itself, or (III) a combination of (I) and (II). At the end of the experimental protocol, tooth mobility and alveolar bone loss, and levels of various tissue destructive MMP collagenases and gelatinases and serine enzymes in the gingiva, were measured.
(§2) For in vivo Examples, Thirty male Sprague-Dawley rates were distributed into 5 groups as follows:
Group 1: Normal. Saline injected+placebo therapy (CMC)
Group 2: LPS. LPS injected+placebo (CMC)
Group 3: CMT-8. LPS injected+CMT-8 (1 mg/day)
Group 4: Clodronate. LPS injected+Clodronate (1 mg/week)
Group 5: Combo. LPS+CMT-8 (1 mg/day)+Clodronate (1 mg/week)
(§3) The treatments were administered by oral gavage once per day (CMT-8) throughout the entire 7 day period, or by a single subcutaneous injection (clodrinate).
(§4) LPS (lipopolysaccharide)-induced periodontitis rat model: Twenty four hours before treatment, the rats were injected into the upper anterior gingivae and into the palatal papillae between 1st and 2nd upper molars with 10 μL of LPS (1 mg/ml) or saline solution, for a total of 10 μg LPS per site injected. The LPS injections were repeated every other day to complete the three injections.
(§5) On day 7, all rats were anesthetized, blood samples were collected by cardiac puncture and rats were sacrificed. Tooth mobility was checked and the gingival tissue was dissected and stored at -80° C. for subsequent enzyme analysis. The jaws were defleshed for bone loss determination.
(§6) The first experiment was designed to select sub-optimal doses of both CMT-8 (a chemically-modified, non-antibacterial tetracycline) and clodronate (a bisphosphonate) in the endotoxin-induced bone loss model. Groups of rats (n=5-6 rats/group) were anesthetized and injected directly into the gingival tissues with either saline (control group) or with LPS endotoxin every other day over a 7-day time period. Twenty-four hours after the first injection, groups of rats were administered by oral gavage either 0, 0.5mg, 1 mg, or 2mg CMT-8 daily for the next 6 days. At the end of the experiment, the rats were anesthetized, blood was drawn by intracardiac puncture, the rats were euthanized and the gingival tissues dissected for enzyme analysis. In addition, tooth mobility was scored and, after defleshing the jaws, alveolar bone loss around the teeth was scored morphometrically using a computer-assisted system.
(§7) In a third experiment, 30 adult male rats were distributed into the following experimental groups: saline-injected group; groups injected with endotoxin and then administered no drug, CMT-8 alone (1 mg/day), clodronate alone (1 mg/week), or a combination of the same sub-optimal doses of both drugs. The experiment was terminated on day 7. As described above, the gingival tissues were dissected, extracted and the partially-purified extracts analyzed for neutral proteinase (elastase and matrix metalloproteinase) activities, and both tooth mobility and alveolar bone loss were assessed.
In FIG. 1, tooth mobility is based on the following scoring system:
1=slight movement (vestibule-palatal)
2=medium movement (vestibule-palatal)
3=severe movement (vertical mobility in and out of socket)

collagenase = assay: Gingival collagenase activity ([3H-methyl] collagen substrate, SDS-PAGE/fluorography) in extracts from treated LPS-injected rats; format: in vivo, rat; settings: Example 3; total collagenase after 1.2 mM APMA activation; vs untreated LPS-injected rats; CMT-8 1 mg/day, clodronate 1 mg/week
Procedure: as §4, §5
as §7, with “assessed. […]” for “assessed.”

LPS-injected rats [2] = assay: Alveolar bone loss in LPS-induced periodontitis rat model (morphometric analysis of defleshed jaws); format: in vivo; settings: for effect on pathologic bone loss: 2 mg
Source text: as §1, §2, §3, §4, §5, §6, §7

osteoclast gelatinase = assay: Inhibition of osteoclast gelatinase ([3H-methyl] gelatin degradation by culture media); format: biochemical, chicken
Procedure: Post-incubation media from cultured chicken osteoclasts were partially-purified, then incubated with [^3 H-methyl] gelatin for 4 hours at 37° C. in the presence of 1.2 mM APMA to activate any latent Pro-gelatinase. The incubations were carried out in the presence (or absence) of several different concentrations (0.001-1000 μM) of a bisphosphonate, Didronel (Etidronic Acid); where appropriate, CMT-1 was added at a final concentration of 50 μM. After the 4 hour incubation, the reaction was stopped by the addition of 45% Trichloroacetic acid and carrier gelatin, the mixture was centrifuged, and aliquots of the supernatant, containing the radiolabeled gelatin degradation fragments, were counted in a liquid scintillation spectrometer.

[3] = molecular target: T1, Recombinant human MT1 -MMP (MMP-14) (Homo sapiens, UniProt P50281); assay: β-casein degradation by MT1-MMP; format: biochemical; settings: single agent, 2 μM (suboptimal)
T1 construct: purchased In Vitro-Tek, Berlin, Germany
Procedure: Also, suboptimal inhibitory doses of CMT's and bisphosphonate, alone and in combination, were tested on pure human recombinant MT1 -MMP and MMP-9 activities using a β-casein-degradation assay.
Recombinant human ([…]) MT1 -MMP (also called MMP-14) (In Vitro-Tek, Berlin, Germany) was pretreated with buffer (none), 2 μM CMT-3 and 2 μM bisphosphonate clodronate (clodrinate) and combinations of 2 μM CMT-3 and 2 μM clodrinate for 1 h at 37° C. Subsequently, substrate β-casein (52 μM) was added to the incubation mixtures, and incubations continued for 60 min at 37° C.

[4] = 0.5 mg, CMT-8 daily oral gavage, clodronate single subcutaneous injection
[5] = 1 mg (selected sub-optimal dose)
[6] = CMT-8 daily oral gavage, clodronate single subcutaneous injection
[7] = 0.5 mg, CMT-8 daily oral gavage, clodronate single subcutaneous injection, Examples 1 and 2
[8] = 1 mg (selected sub-optimal dose), Examples 1 and 2
[9] = CMT-8 daily oral gavage, clodronate single subcutaneous injection, Examples 1 and 2
[10] = Example 3, day 7, CMT-8 1 mg/day oral, clodronate 1 mg/week s.c.

With `CC1c2cccc(O)c2C(O)=C2C(=O)[C@]3(O)C(O)=C(C(N)=O)C(=O)C[C@@H]3[C@@H](O)[C@@H]21` (stereo partly drawn) [CMT-8, 6-deoxy-5α-hydroxy-4-de(dimethylamino)tetracycline] the “effect on tooth mobility” value (LPS-injected rats [1]; [4]) was “no significant effects”, the “effect on tooth mobility” value (LPS-injected rats [1]; [5]) was “either no, or barely detectable beneficial effects” and the “effect on pathologic tooth mobility” value (LPS-injected rats [1]; [6]) was “essentially returned the pathologic tooth mobility and bone loss, induced by bacteria endotoxin, to control levels”. The “reduction in tooth mobility” value (LPS-injected rats [1]) was 18%, the “tooth mobility relative to the level in saline-injected control rats” value (LPS-injected rats [1]) was “more than twice the level seen in the control rats” and the “reduction of gingival collagenase activity” value (collagenase) was 22-31%. The “effect on alveolar bone loss” value (LPS-injected rats [2]; [7]) was “no significant effects”, the “effect on alveolar bone loss” value (LPS-injected rats [2]; [8]) was “either no, or barely detectable beneficial effects” and the “effect on pathologic bone loss” value (LPS-injected rats [2]; [9]) was “essentially returned the pathologic tooth mobility and bone loss, induced by bacteria endotoxin, to control levels”. The “effect on alveolar bone loss” value (LPS-injected rats [2]; [10]) was “reduced alveolar bone loss only slightly, if at all”.
In the case of `CC(O)(P(=O)(O)O)P(=O)(O)O` [Didronel, Etidronic Acid], the “inhibition of osteoclast gelatinase activity” value (osteoclast gelatinase; Didronel at 0.001, 0.1, 10, and 1000 μM final concentrations) is reported as “did not show any detectable inhibition”.
`NC(=O)C1=C(O)C2(O)C(=O)C3=C(O)c4c(O)cccc4CC3CC2CC1=O` (stereo not drawn) [CMT-3, 6-demethyl-6-deoxy-4-de(dimethylamino)tetracycline] was tested, and the “inhibition of β-casein degradation by MT1-MMP” value [3] was “relative slight inhibition”.
`CC1(O)c2cccc(O)c2C(=O)C2=C(O)C3(O)C(=O)C(C(N)=O)=C(O)CC3CC21` (stereo not drawn) [CMT-1, 4-de(dimethylamino)tetracycline] was tested, and the “inhibition of osteoclast gelatinase activity” value (osteoclast gelatinase; 50 μM CMT-1, 4 hours at 37° C., 1.2 mM APMA) was “about 79%”.
With `O=P(O)(O)C(Cl)(Cl)P(=O)(O)O` [clodronate, dichloromethane diphosphonic acid] the “inhibition of β-casein degradation by MT1-MMP” value [3] was “relative slight inhibition”, the “effect on tooth mobility” value (LPS-injected rats [1]; [4]) was “no significant effects” and the “effect on tooth mobility” value (LPS-injected rats [1]; [5]) was “either no, or barely detectable beneficial effects”. For the same compound, the “effect on pathologic tooth mobility” value (LPS-injected rats [1]; [6]) was “essentially returned the pathologic tooth mobility and bone loss, induced by bacteria endotoxin, to control levels”, the “reduction in tooth mobility” value (LPS-injected rats [1]) was 18% and the “tooth mobility relative to the level in saline-injected control rats” value (LPS-injected rats [1]) was “more than twice the level seen in the control rats”. The “reduction of gingival collagenase activity” value (collagenase) was 22-31%, the “effect on alveolar bone loss” value (LPS-injected rats [2]; [7]) was “no significant effects” and the “effect on alveolar bone loss” value (LPS-injected rats [2]; [8]) was “either no, or barely detectable beneficial effects”. The “effect on pathologic bone loss” value (LPS-injected rats [2]; [9]) was “essentially returned the pathologic tooth mobility and bone loss, induced by bacteria endotoxin, to control levels” and the “effect on alveolar bone loss” value (LPS-injected rats [2]; [10]) was “reduced alveolar bone loss only slightly, if at all”.
